Measured values from US20210401863A1, “TREATMENT AND PREVENTION OF NEISSERIA GONORRHOEAE INFECTION USING CMP-ACTIVATED NONULOSONATE ANALOG COMPOUNDS” (NATIONAL RESEARCH COUNCIL OF CANADA, priority 2015, published 2021).
Like-named read-outs stand apart in the source and are kept apart here.

What was measured:
N. gonorrhoeae F62 ΔlgtD [1] = format: cell-based, Neisseria gonorrhoeae; conditions: for % survival in 3.3% serum / % survival in 10% serum: Table 5
Description: Generally, bacteria (F62 ΔlgtD) grown overnight on chocolate agar plates were suspended in gonococcal liquid media supplemented with IsoVitaleX [29] that contained specified concentrations of the CMP-nonulosonate. Bacteria were then incubated at 37° C. for the period specified in each experiment.
Serum bactericidal assays were performed as follows, similar to methods outlined in [32,33] and in U.S. Pat. No. 9,765,106. Bacteria were harvested from an overnight culture on chocolate agar plates and ˜10^5 CFU of Ng were grown in liquid media containing the concentrations of CMP-NuIO as specified for each experiment. Bacteria were diluted in Morse A and ˜2000 CFU of Ng F62 ΔlgtD were incubated with NHS (concentration specified for each experiment). The final reaction volumes were maintained at 150 μL. Aliquots of 25 μL of reaction mixtures were plated onto chocolate agar in duplicate at the beginning of the assay (t0) and again after incubation at 37° C. for 30 minutes (t30). Survival was calculated as the number of viable colonies at t30 relative to t0.
Addition of a terminal Neu5Ac residue to the LNnT LOS of N. gonorrhoeae that occurs in vivo or following the addition of CMP-Neu5Ac to growth media results in resistance to complement-dependent killing. We next determined the effects of LNnT incorporation of KDN on the ability of N. gonorrhoeae F62 ΔlgtD to resist complement-dependent killing by normal human sera at concentrations of 3.3% or 10%. Bacteria were grown either in media alone, or media supplemented with 20 μg/mL of CMP-Neu5Ac or CMP-KDN. In addition, CMP-NulO competition experiments were also performed with CMP-Neu5Ac, CMP-Leg5Ac7Ac and CMP-KDN at CMP-NulO concentrations of either 20 μg/mL or 2 μg/mL as indicated, where the second CMP-NulO was added 15 minutes after the first (Table 1 below). To note, these CMP-NulO competition experiments are a method to examine the ability of select CMP-NulOs to counter the enhanced serum resistance due to CMP-Neu5Ac addition, providing information on their therapeutic potential (as any potential therapeutic will be required to compete with CMP-Neu5Ac in vivo).

[2] = biological target: T1, gonococcal LOS sialyltransferase (Lst) (Neisseria gonorrhoeae, UniProt P72074); assay: mAb 3F11 binding by flow cytometry (incorporation of NulO on LNnT LOS by Lst); format: cell-based, N. gonorrhoeae F62 ΔlgtD; conditions: F62 ΔlgtD grown in media with 20 μg/mL CMP-NulO
T1 construct: CMP-KDN served as a substrate for gonococcal Lst in the context of live bacteria; endogenous in cells; host or cells: N. gonorrhoeae F62 ΔlgtD (live bacteria)
Description: FIG. 1: CMP-KDN serves as a substrate for gonococcal LOS and incorporation of KDN on gonococcal lacto-N-neotetraose LOS enhances factor H (FH) binding. A. Incorporation of KDN by gonococci. Gonococcal strain F62 ΔlgtD (expresses lacto-N-neotetraose (LNnT) from Hepl) was grown in media containing CMP-KDN (20 μg/mL) and binding of mAb 3F11 was measured by flow cytometry. mAb 3F11 binds only to […] LNnT; substitution of the terminal Gal of LNnT, for example with a NulO, will decrease mAb 3F11 binding. Approximately 5×10^7 bacteria were incubated with mAb 3F11 tissue culture supernatants for 15 minutes at 37° C. Binding of mAb 3F11 was disclosed with anti-mouse IgM FITC (Sigma; dilution of 1:100). Bacteria grown in CMP-Neu5Ac or in media alone were used as positive and negative controls for sialylation, respectively. A representative histogram is shown in the upper panel. […] B. Factor H (FH) binding to gonococci grown in CMP-KDN. Approximately 5×10^7 bacteria grown in media alone (no sialic acid), media plus CMP-Neu5Ac (20 μg/mL; positive control for FH binding) or in media containing CMP-KDN (20 μg/mL) were incubated with purified human FH (20 μg/mL) in HBSS** for 15 minutes at 37° C. and bound FH was detected with affinity isolated goat anti-human FH followed by anti-goat IgG FITC (Sigma; 1:100 dilution). A representative histogram is shown in the upper panel.
FIG. 3: CMP-KDN7N3 serves as a substrate for gonococcal Lst resulting in incorporation of KDN7N3 on gonococcal lacto-N-neotetraose (LNnT) LOS—Incorporation of KDN7N3 by gonococci. Gonococcal strain F62ΔlgtD (expresses lacto-N-neotetraose (LNnT) from Hepl) was grown in media containing CMP-KDN7N3 (20 μg/mL) and binding of mAb 3F11 was measured by flow cytometry. mAb 3F11 binds only to […] LNnT; substitution of the terminal Gal of LNnT, for example with a NulO, will decrease mAb 3F11 binding. Approximately 5×10^7 bacteria were incubated with mAb 3F11 tissue culture supernatants for 15 minutes at 37° C. Binding of mAb 3F11 was disclosed with anti-mouse IgM FITC (Sigma; dilution of 1:100). […]

N. gonorrhoeae F62 ΔlgtD [3] = conditions: from U.S. patent application Ser. No. 14/627,396; cited from earlier work
[4] = biological target: T1, gonococcal LOS sialyltransferase (Lst); conditions: from U.S. patent application Ser. No. 14/627,396; cited from earlier work
N. gonorrhoeae H041 = assay: BALB/c mouse vaginal colonization model; format: in vivo; conditions: 10 μg intravaginally daily; Premarin treated BALB/c mice
Description: FIG. 2: Female BALB/c mice 5-6 weeks of age (Jackson Laboratories) in the diestrus phase of the estrous cycle were started on treatment (that day) with 0.5 mg of Premarin (Pfizer) given subcutaneously on each of three days; −2, 0 and +2 days (before, the day of and after inoculation) to prolong the estrus phase of the cycle and promote susceptibility to N. gonorrhoeae infection. Antibiotics (vancomycin, colistin, neomycin, trimethoprim and streptomycin) that were ineffective against N. gonorrhoeae were also used to reduce competitive microflora. Mice (n=40) were then infected with 10^6 CFU of strain H041. Three groups of mice (n=10/group) were treated with 10 μg intravaginally daily (first dose was administered 30 minutes before the introduction of bacteria) with one of the following CMP-NulOs in normal saline: CMP-Leg5Ac7Ac, CMP-Neu5Ac9Az or CMP-KDN. A fourth group (n=10) was given saline (vehicle control). Vaginal swabs were obtained daily from each animal, serially diluted and plated on chocolate agar containing vancomycin, colistin, neomycin, trimethoprim and streptomycin (VCNTS) to quantify bacterial loads. A. Median time to clearance was estimated using Kaplan-Meier survival curves; the times to clearance were compared between groups using a log-rank test. P<0.0001 for the control versus each of the treatment groups. Time to clearance between each of the treatment groups was similar (P>0.05). B. The mean area under the curve (log10 CFU vs. time) was computed for each mouse to estimate the bacterial burden over time (cumulative infection); the means under the curves were compared between groups using the Kruskal-Wallis nonparametric rank sum test because distributions were skewed or kurtotic. Groups were compared using Dunn's multiple comparison test. ****, P<0.0001; **, P<0.01; *, P<0.05. The differences among the groups that received CMP-NulOs were not significant.
The mouse model experiments and statistical analysis were conducted as described in the art and in U.S. Pat. No. 9,765,106. […]

purified human FH = conditions: from U.S. Pat. No. 9,765,106 / Ser. No. 14/627,396; cited from earlier work

T1 sequence (P72074 whole entry): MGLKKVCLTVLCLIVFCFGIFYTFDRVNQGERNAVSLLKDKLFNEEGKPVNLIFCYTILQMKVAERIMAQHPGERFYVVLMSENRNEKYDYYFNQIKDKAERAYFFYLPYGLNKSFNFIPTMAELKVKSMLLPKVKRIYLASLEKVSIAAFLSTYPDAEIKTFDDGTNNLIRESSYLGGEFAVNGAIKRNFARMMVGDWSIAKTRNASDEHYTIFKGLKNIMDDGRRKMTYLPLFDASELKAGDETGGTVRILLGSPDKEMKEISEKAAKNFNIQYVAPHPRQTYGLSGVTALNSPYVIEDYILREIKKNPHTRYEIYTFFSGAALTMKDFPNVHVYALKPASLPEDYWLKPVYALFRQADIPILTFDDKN

| SMILES | serum sensitivity (in words) (N. gonorrhoeae F62 ΔlgtD [1]; CMP-NulO alone, 10% serum) | % survival in 3.3% serum (N. gonorrhoeae F62 ΔlgtD [1]; CMP-NulO 20 μg/mL) [%] | % survival in 10% serum (N. gonorrhoeae F62 ΔlgtD [1]; CMP-NulO 20 μg/mL, 10% serum) [%] | % survival in 3.3% serum (N. gonorrhoeae F62 ΔlgtD [1]; CMP-NulO 100 μg/mL) [%] | % survival in 10% serum (N. gonorrhoeae F62 ΔlgtD [1]; CMP-NulO 100 μg/mL, 10% serum) [%] | binding of mAb 3F11 (use as substrate by gonococcal Lst) [2] | serum resistance / serum-mediated killing (earlier results) (N. gonorrhoeae F62 ΔlgtD [3]) | substrate for gonococcal LOS sialyltransferase (Lst) (earlier results) [4] | attenuation of N. gonorrhoeae H041 infection (N. gonorrhoeae H041) | fH binding to bacteria (earlier results) (purified human FH) |
| --- | --- | --- | --- | --- | --- | --- | --- | --- | --- | --- |
| [N-]=[N+]=N[C@@H](C1O[C@](OP(=O)(O)OC[C@H]2O[C@@H](n3ccc(N)nc3=O)C(O)C2O)(C(=O)O)CC(O)[C@H]1O)[C@H](O)CO (stereo partly drawn) [CMP-KDN7N3, cytidine 5′-monophospho-3,7-dideoxy-7-azido-D-glycero-D-galacto-nonulosonic acid] | resulted in serum sensitivity | 125.60 | 33.92 | 123.67 | 22.52 | could be utilized by gonococcal LOS sialyltransferase (Lst) | – | – | – | – |
| CC(=O)NC1C(O)CC(OP(=O)(O)OCC2OC(n3ccc(N)nc3=O)C(O)C2O)(C(=O)O)OC1C(O)C(O)COC(C)=O (stereo not drawn) [CMP-Neu5Ac9Ac] | – | – | – | – | – | – | enhanced serum-mediated killing | can serve as substrates for gonococcal LOS sialyltransferase (Lst) | – | – |
| CC(=O)N[C@H]1[C@H]([C@H](O)[C@H](O)CN=[N+]=[N-])OC(OP(=O)(O)OC[C@H]2O[C@@H](n3ccc(N)nc3=O)[C@H](O)[C@@H]2O)(C(=O)O)C[C@@H]1O (stereo partly drawn) [CMP-Neu5Ac9Az] | – | – | – | – | – | – | enhanced serum-mediated killing | can serve as substrates for gonococcal LOS sialyltransferase (Lst) | significantly attenuated | not enhance fH binding above levels seen with an unsialylated F62 ΔlgtD control |
| CO[C@H](CO)[C@@H](O)[C@@H]1O[C@@](OP(=O)(O)OC[C@H]2O[C@@H](n3ccc(N)nc3=O)[C@H](O)[C@@H]2O)(C(=O)O)C[C@H](O)[C@H]1NC(=O)CO [CMP-Neu5Gc8Me] | – | – | – | – | – | – | enhanced serum-mediated killing | can serve as substrates for gonococcal LOS sialyltransferase (Lst) | – | not enhance fH binding above levels seen with an unsialylated F62 ΔlgtD control |
| Nc1ccn([C@@H]2O[C@H](COP(=O)(O)O[C@@]3(C(=O)O)C[C@H](O)[C@@H](NC(=O)CO)[C@H]([C@H](O)[C@H](O)CO)O3)[C@@H](O)[C@H]2O)c(=O)n1 [CMP-Neu5Gc] | – | – | – | – | – | – | able to simulate the high-level serum resistance reported for CMP-Neu5Ac | can serve as substrates for gonococcal LOS sialyltransferase (Lst) | – | high level of fH binding to bacteria |
